The source of these data is ChEMBL document CHEMBL1157632, “Discovery of dipeptides with high affinity to the specific binding site for substance P1-7” (J Med Chem, 2010).

Active and inactive are the calls of the source. The rule behind the calls is not given here. Peptide text beside a SMILES is read from it.

The target in the assay is Neuromedin-K receptor (NK-3) (Homo sapiens) (UniProt P29371). The assay can be described thus: Displacement of [MePhe7]-NKB from human recombinant NK3 receptor at 10 uM.
Chain of Neuromedin-K receptor (NK-3) (Homo sapiens) (P29371 whole entry, looked up): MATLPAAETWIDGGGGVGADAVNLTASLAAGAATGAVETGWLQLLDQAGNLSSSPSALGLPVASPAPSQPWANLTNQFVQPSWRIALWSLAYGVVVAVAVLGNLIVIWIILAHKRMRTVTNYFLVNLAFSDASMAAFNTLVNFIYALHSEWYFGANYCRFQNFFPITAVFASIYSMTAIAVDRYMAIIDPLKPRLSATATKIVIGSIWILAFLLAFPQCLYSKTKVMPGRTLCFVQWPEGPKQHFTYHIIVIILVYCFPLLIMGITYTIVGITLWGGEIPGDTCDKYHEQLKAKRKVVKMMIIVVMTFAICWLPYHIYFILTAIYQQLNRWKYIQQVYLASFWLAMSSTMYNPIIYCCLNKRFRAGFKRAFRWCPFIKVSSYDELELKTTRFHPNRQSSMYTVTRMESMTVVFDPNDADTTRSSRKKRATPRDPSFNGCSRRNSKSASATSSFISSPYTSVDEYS

As to `NC(=O)[C@H](Cc1ccccc1)NC(=O)[C@@H](N)Cc1ccccc1` (H-Phe-Phe-NH2), the outcome was inactive.
